Measurements reported in patent US20240279298A1 (BEIJING TUO JIE BIOPHARMACEUTICAL CO. LTD., priority 2021, published 2024).
In brackets after ≈: the same amount, converted by molar mass. Each block holds one compound with its values, some of them ahead of it. Where a SMILES comes first, the peptide text is derived from it. [ ]: non-standard residue; d: D form. Aib = CC(C)(N)C(=O)O

Key:
[1] = target: T1, human glucagon receptor (GCGR) (Homo sapiens, UniProt P47871); experiment: Agonist activity assay for GCGR (cAMP HTRF); type: cell-based; details: normalized by the activity of the native glucagon
T1 construct: expressed in transfected cells
Method: The activation of GCGR by related compounds will stimulate the formation of cyclic adenosine monophosphate (cAMP) in cells. Thus, the receptor activity can be monitored by cAMP production in proper cells expressing the receptor. […] The cells were passaged at least once for subsequent tests. Before testing, the cells were trypsinized, centrifuged, washed once, and resuspended in serum-free DMEM/F12 medium. The cell density was adjusted, and the cells were plated in a 96-well plate at a density of 2,500 cells/5 μL/well. […] The mixture was mixed well by moderate vibration, and incubated for 1 hour at room temperature away from light.

[2] = Maximum solubility in phosphate buffer pH 7.4; type: physicochemical; details: phosphate buffer pH 7.4, room temperature
[3] = Chemical stability in phosphate buffer (UPLC purity); type: physicochemical; details: phosphate buffer pH 7.4, 1 mg/mL
[4] = tested on: normal rats (blood glucose); experiment: Efficacy in normoglycemic rat model; type: in vivo, SD rats; details: normal rats, 2 nmol/kg subcutaneous single dose
[5] = tested on: insulin-induced hypoglycemia rat model; experiment: Efficacy in insulin-induced hypoglycemic rat model; type: in vivo, SD rats; details: insulin 0.65 IU/kg at T0; 12 nmol/kg subcutaneous at 45 min
[6] = Pharmacokinetics in rats after subcutaneous injection; type: in vivo, SD rats; details: plasma
Method: (1) Animals were grouped according to Table 12, and were given free access to water and food before administration.
• Sampling time: 0 min pre-dose, and 2 min, 4 min, 7 min, 10 min, 20 min, 40 min, 1 h and 2 h post-dose. Blood was collected from rats by jugular catheterization.
• 1) 0.2 mL of whole blood was collected at each time point into a centrifuge tube containing EDTA-K2; • 2) The blood samples were centrifuged at 4000 g at 4° C. for 5 min, and separated to give the plasma; • 3) The plasma samples were cryopreserved at −80° C.
The mixture was vortexed for 5 min and centrifuged at a low temperature for 10 min. 100 μL of the supernatant was taken and added to 100 μL of 0.1% formic acid aqueous solution. The mixture was mixed well, and loaded on the instrument for analysis; • Liquid chromatography and mass spectrometry analysis: LC-30A liquid chromatography system (Shimadzu, Japan) and API 5500 liquid chromatography-triple quadrupole mass spectrometer (Analyst Software data processing system, AB Sciex, USA) were used. The chromatographic column was nanomicro Unisil C18aq (4.6 mm×150 mm, 5 μm) chromatographic column; the column temperature was 40° C.; the mobile phase A was 0.1% formic acid aqueous solution, and the mobile phase B was 0.1% formic acid in acetonitrile; the flow rate was 0.5 mL/min; the injection volume was 20 μL; the gradient is shown in Table 13 below. The mass spectrum was obtained using an electrospray ionization (ESI) source, a positive ion analysis mode and a multi reaction monitoring (MRM) scanning mode.
The plasma concentration of the test compounds was measured by HPLC-MS/MS. The plasma concentration-time curve was plotted, and the pharmacokinetic parameters were calculated by PKSolver.

in vitro [7] = details: human
in vitro [8] = details: human; remark: listed apart in the source
[9] = tested on: rat erythrocyte suspension; experiment: Hemolysis assay; details: for Hemolysis rate: 37° C., 1 hour
human liver microsomes = experiment: Stability in human liver microsome incubation system
human kidney microsomes = experiment: Stability in human kidney microsome incubation system

T1 sequence (P47871 26-477): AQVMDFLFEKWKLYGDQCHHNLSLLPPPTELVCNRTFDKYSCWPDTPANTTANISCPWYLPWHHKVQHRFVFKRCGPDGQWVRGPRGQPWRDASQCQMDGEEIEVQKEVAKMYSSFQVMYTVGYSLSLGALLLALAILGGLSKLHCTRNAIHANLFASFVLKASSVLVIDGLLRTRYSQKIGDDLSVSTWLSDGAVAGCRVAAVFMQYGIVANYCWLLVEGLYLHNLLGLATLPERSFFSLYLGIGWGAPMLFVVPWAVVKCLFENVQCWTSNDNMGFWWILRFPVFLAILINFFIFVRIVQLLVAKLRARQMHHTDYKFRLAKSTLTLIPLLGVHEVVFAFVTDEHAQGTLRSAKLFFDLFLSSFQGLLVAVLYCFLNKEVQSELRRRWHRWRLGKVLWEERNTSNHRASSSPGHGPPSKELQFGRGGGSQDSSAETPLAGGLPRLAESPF

Relative activity [1]: 253%
solubility at 5 min [2]: > 2070 µg/mL
SMILES: CC(C)C[C@H](NC(=O)[C@H](Cc1ccc(O)cc1)NC(=O)[C@H](CCCCN)NC(=O)[C@H](CO)NC(=O)[C@H](Cc1ccc(O)cc1)NC(=O)[C@H](CC(=O)O)NC(=O)[C@H](CO)NC(=O)[C@@H](NC(=O)[C@H](Cc1ccccc1)NC(=O)[C@@H](NC(=O)CNC(=O)[C@H](Cc1c[nH]cn1)NC(=O)[C@H](CO)NC(=O)[C@@H](N)Cc1c[nH]cn1)[C@@H](C)O)[C@@H](C)O)C(=O)N[C@@H](CC(=O)O)C(=O)N[C@@H](CC(C)C)C(=O)NC(C)(C)C(=O)N[C@@H](CCCNC(=N)N)C(=O)N[C@@H](C)C(=O)N[C@@H](CCC(N)=O)C(=O)N[C@@H](CCC(=O)O)C(=O)N[C@@H](Cc1ccccc1)C(=O)N[C@H](C(=O)N[C@@H](CCC(=O)O)C(=O)N[C@@H](Cc1c[nH]c2ccccc12)C(=O)N[C@@H](CC(C)C)C(=O)N[C@@H](CCC(=O)O)C(=O)N[C@@H](CO)C(=O)N[C@H](C(=O)O)[C@@H](C)O)C(C)C [Compound 47] (H-HSHGTFTSDYSKYLDL[Aib]RAQEFVEWLEST-OH)

solubility at 5 min [2]: > 3750 µg/mL
Purity Day 7 ([3]; 4° C.): 98.66%
Purity Day 14 ([3]; 4° C.): 98.84%
Purity Day 21 ([3]; 4° C.): 99.85%
Purity Day 28 ([3]; 4° C.): 99.68%
Purity Day 7 ([3]; 25° C.): 98.07%
Purity Day 14 ([3]; 25° C.): 96.73%
Purity Day 21 ([3]; 25° C.): 96.68%
Purity Day 28 ([3]; 25° C.): 96.81%
Purity Day 0 ([3]; day 0 (normalization)): 100.00%
AUClast/D ([6]; male SD rats, single SC injection, Dasiglucagon 5 mg/kg, 40 5.06 mg/kg): 260 h·ng/mL per mg/kg
Tmax ([6]; male, SD, rat, sc): 10 min
half-life ([6]; male, SD, rat, sc, male SD rats, single SC injection, Dasiglucagon 5 mg/kg, 40 5.06 mg/kg): 30.6 min
bioavailability ([6]; male, SD, rat, sc, read-out: Bioavailability (F %)): 84.6%
remaining at 0.25 h, 1 μM (in vitro [7]; human liver microsomes): 91.8%
remaining at 0.5 h, 1 μM (in vitro [7]; human liver microsomes): 91.6%
remaining at 1 h, 1 μM (in vitro [7]; human liver microsomes): 81.1%
remaining at 2 h, 1 μM (in vitro [7]; human liver microsomes): 59.2%
half-life at 1 μM (in vitro [7]; liver microsomes): 162 min
remaining at 0.25 h, 1 μM (in vitro [8]; human kidney microsomes): 63.5%
remaining at 0.5 h, 1 μM (in vitro [8]; human kidney microsomes): 52.9%
remaining at 1 h, 1 μM (in vitro [8]; human kidney microsomes): 36.6%
remaining at 2 h, 1 μM (in vitro [8]; human kidney microsomes): 17.7%
half-life at 1 μM (in vitro [8]; kidney microsomes): 51.3 min
Percentage residues 0 min (human liver microsomes; With NADPH): 100.0%
Percentage residues 0 min (human liver microsomes; Without NADPH): 100.0%
Percentage residues 15 min (human liver microsomes; Without NADPH): 91.65%
Percentage residues 30 min (human liver microsomes; Without NADPH): 88.78%
Percentage residues 60 min (human liver microsomes; Without NADPH): 71.74%
Percentage residues 120 min (human liver microsomes; Without NADPH): 53.48%
T½ (human liver microsomes; Without NADPH, 1 μM): 125.37 min
Percentage residues 0 min (human kidney microsomes; With NADPH): 100.0%
Percentage residues 0 min (human kidney microsomes; Without NADPH): 100.0%
Percentage residues 15 min (human kidney microsomes; Without NADPH): 73.24%
Percentage residues 30 min (human kidney microsomes; Without NADPH): 55.17%
Percentage residues 60 min (human kidney microsomes; Without NADPH): 33.12%
Percentage residues 120 min (human kidney microsomes; Without NADPH): 19.74%
T½ (human kidney microsomes; Without NADPH, 1 μM): 51.98 min
SMILES: CC(C)C[C@H](NC(=O)[C@H](Cc1c[nH]c2ccccc12)NC(=O)[C@H](CCCCN)NC(=O)[C@@H](NC(=O)[C@H](Cc1ccccc1)NC(=O)[C@H](CCC(=O)O)NC(=O)[C@H](CCC(=O)O)NC(=O)[C@H](C)NC(=O)[C@H](CCCNC(=N)N)NC(=O)[C@H](C)NC(=O)C(C)(C)NC(=O)[C@H](CC(=O)O)NC(=O)[C@H](CC(C)C)NC(=O)[C@H](Cc1ccc(O)cc1)NC(=O)[C@H](CCCCN)NC(=O)[C@H](CO)NC(=O)[C@H](Cc1ccc(O)cc1)NC(=O)[C@H](CC(=O)O)NC(=O)[C@H](CO)NC(=O)[C@@H](NC(=O)[C@H](Cc1ccccc1)NC(=O)[C@@H](NC(=O)CNC(=O)[C@H](CCC(N)=O)NC(=O)[C@H](CO)NC(=O)[C@@H](N)Cc1c[nH]cn1)[C@@H](C)O)[C@@H](C)O)C(C)C)C(=O)N[C@@H](CCC(=O)O)C(=O)N[C@@H](CO)C(=O)N[C@H](C(=O)O)[C@@H](C)O [Dasiglucagon, reference compound]
Blood glucose 15 min [4]: 9.32 mmol/L
Blood glucose 30 min [4]: 7.73 mmol/L
Blood glucose 45 min [4]: 6.87 mmol/L
Blood glucose 60 min [4]: 6.08 mmol/L
Blood glucose 60 min [5]: 7.00 mmol/L
Blood glucose 75 min [5]: 9.52 mmol/L
Blood glucose 90 min [5]: 8.43 mmol/L
Blood glucose 105 min [5]: 7.47 mmol/L
Hemolysis rate ([9]; 1 μg/mL): −4.69%
Hemolysis rate ([9]; 3 μg/mL): −4.77%
Hemolysis rate ([9]; 10 μg/mL): −4.05%
Hemolysis rate ([9]; 30 μg/mL): −5.23%
Hemolysis rate ([9]; 100 μg/mL): −5.52%
Hemolysis rate ([9]; 300 μg/mL): −4.63%
Hemolysis risk (in words) ([9]; concentrations ranging from 1 to 300 μg/mL): no significant risk of the hemolysis adverse effect was found

Relative activity [1]: 371%
solubility at 5 min [2]: 1620 µg/mL (≈ 472 µM)
SMILES: CC(C)C[C@H](NC(=O)[C@H](Cc1ccc(O)cc1)NC(=O)[C@H](CCCCN)NC(=O)[C@H](CO)NC(=O)[C@H](Cc1ccc(O)cc1)NC(=O)[C@H](CC(=O)O)NC(=O)[C@H](CO)NC(=O)[C@@H](NC(=O)[C@H](Cc1ccccc1)NC(=O)[C@@H](NC(=O)CNC(=O)[C@H](Cc1c[nH]cn1)NC(=O)[C@H](CO)NC(=O)[C@@H](N)Cc1c[nH]cn1)[C@@H](C)O)[C@@H](C)O)C(=O)N[C@@H](CC(=O)O)C(=O)N[C@@H](CC(C)C)C(=O)NC(C)(C)C(=O)N[C@@H](CCCNC(=N)N)C(=O)N[C@@H](C)C(=O)N[C@@H](CCC(N)=O)C(=O)N[C@@H](CCC(=O)O)C(=O)N[C@@H](Cc1ccccc1)C(=O)N[C@H](C(=O)N[C@@H](CCC(N)=O)C(=O)N[C@@H](Cc1c[nH]c2ccccc12)C(=O)N[C@@H](CC(C)C)C(=O)N[C@@H](CCC(=O)O)C(=O)N[C@@H](CO)C(=O)N[C@H](C(=O)O)[C@@H](C)O)C(C)C [Compound 43] (H-HSHGTFTSDYSKYLDL[Aib]RAQEFVQWLEST-OH)

solubility [2]: > 16400 µg/mL
SMILES: CC(C)C[C@H](NC(=O)[C@H](Cc1ccc(O)cc1)NC(=O)[C@H](CCCCN)NC(=O)[C@H](CO)NC(=O)[C@H](Cc1ccc(O)cc1)NC(=O)[C@H](CC(=O)O)NC(=O)[C@H](CO)NC(=O)[C@@H](NC(=O)[C@H](Cc1ccccc1)NC(=O)[C@@H](NC(=O)CNC(=O)[C@H](CCC(N)=O)NC(=O)[C@H](CO)NC(=O)[C@@H](N)Cc1c[nH]cn1)[C@@H](C)O)[C@@H](C)O)C(=O)N[C@@H](CCC(=O)O)C(=O)N[C@@H](CO)C(=O)NC(C)(C)C(=O)N[C@@H](CCCNC(=N)N)C(=O)N[C@@H](C)C(=O)N[C@@H](CCC(=O)O)C(=O)N[C@@H](CC(=O)O)C(=O)N[C@@H](Cc1ccccc1)C(=O)N[C@H](C(=O)N[C@@H](CCCNC(=N)N)C(=O)N[C@@H](Cc1c[nH]c2ccccc12)C(=O)N[C@@H](CC(C)C)C(=O)N[C@@H](CCC(=O)O)C(=O)N[C@@H](CO)C(=O)N[C@H](C(=O)O)[C@@H](C)O)C(C)C [Compound 38] (H-HSQGTFTSDYSKYLES[Aib]RAEDFVRWLEST-OH)
